# Data as given in the supplement of paper PMC10307832.
# What was measured:
# Experiment in all cases: relative viability (nuclei count vs DMSO), 5 days (fraction); higher = more cells survive
# NCI-H1993 = test system: NCI-H1993
# Procedure, shortened: (§1)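 One day after seeding in 1536-well plates, lung cancer cell lines were dosed by pin tool. Dosing was either single-drug or a fixed anchor-drug dose plus five library-drug doses (not always all listed) in √10 steps. After 5 days, nuclei were stained in one fix-and-stain step and counted on 4× images, and relative viability is the nuclei count of treated wells over that of vehicle wells, given as the median of duplicate plates.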
# NCI-H727 = test system: NCI-H727
# Procedure, shortened: as §1
# BEN = test system: BEN
# Procedure, shortened: as §1
# HOP-62 = test system: HOP-62
# Procedure, shortened: as §1
# COR-L 105 = test system: COR-L 105
# Procedure, shortened: as §1
# HARA = test system: HARA
# Procedure, shortened: as §1
# HCC-827 = test system: HCC-827
# Procedure, shortened: as §1
# SK-MES-1 = test system: SK-MES-1
# Procedure, shortened: as §1
# NCI-H2009 = test system: NCI-H2009
# Procedure, shortened: as §1
# CAL-12T = test system: CAL-12T
# Procedure, shortened: as §1
# PC-3 [JPC-3] = test system: PC-3 [JPC-3]
# Procedure, shortened: as §1
# HCC-366 = conditions: first compound 0.08 µM
# Procedure, shortened: as §1
smiles,measurement,setting,value
O=c1[nH]c2ccccc2n1C1CCN(CCCC(c2ccc(F)cc2)c2ccc(F)cc2)CC1 [Pimozide] + Cc1nc(Nc2ncc(C(=O)Nc3c(C)cccc3Cl)s2)cc(N2CCN(CCO)CC2)n1 [Dasatinib] (partner 0.075 µM),relative viability,NCI-H1993; first compound 0.08 µM,0.649
same,relative viability,NCI-H1993; first compound 0.253 µM,0.597
same,relative viability,NCI-H1993; first compound 0.8 µM,0.464
same,relative viability,NCI-H1993; first compound 2.53 µM,0.664
same,relative viability,NCI-H1993; first compound 8 µM,0.332
same,relative viability,NCI-H727; first compound 0.08 µM,0.36
same,relative viability,NCI-H727; first compound 0.253 µM,0.347
same,relative viability,NCI-H727; first compound 0.8 µM,0.4
same,relative viability,NCI-H727; first compound 2.53 µM,0.358
same,relative viability,NCI-H727; first compound 8 µM,0.405
same,relative viability,BEN; first compound 0.08 µM,0.279
same,relative viability,BEN; first compound 0.253 µM,0.364
same,relative viability,BEN; first compound 0.8 µM,0.26
same,relative viability,BEN; first compound 2.53 µM,0.329
same,relative viability,BEN; first compound 8 µM,0.412
same,relative viability,HOP-62; first compound 0.08 µM,0.698
same,relative viability,HOP-62; first compound 0.253 µM,0.617
same,relative viability,HOP-62; first compound 2.53 µM,0.685
same,relative viability,HOP-62; first compound 8 µM,0.651
same,relative viability,COR-L 105; first compound 0.253 µM,0.427
same,relative viability,COR-L 105; first compound 0.8 µM,0.411
same,relative viability,COR-L 105; first compound 2.53 µM,0.293
same,relative viability,COR-L 105; first compound 8 µM,0.301
same,relative viability,HARA; first compound 0.253 µM,0.262
same,relative viability,HARA; first compound 0.8 µM,0.275
same,relative viability,HARA; first compound 2.53 µM,0.247
same,relative viability,HARA; first compound 8 µM,0.304
same,relative viability,HCC-827; first compound 0.253 µM,0.265
same,relative viability,HCC-827; first compound 0.8 µM,0.327
same,relative viability,HCC-827; first compound 2.53 µM,0.32
same,relative viability,HCC-827; first compound 8 µM,0.34
same,relative viability,SK-MES-1; first compound 0.08 µM,0.313
same,relative viability,SK-MES-1; first compound 0.253 µM,0.41
same,relative viability,SK-MES-1; first compound 0.8 µM,0.358
same,relative viability,SK-MES-1; first compound 2.53 µM,0.325
same,relative viability,SK-MES-1; first compound 8 µM,0.336
same,relative viability,NCI-H2009; first compound 0.08 µM,0.307
same,relative viability,NCI-H2009; first compound 0.253 µM,0.326
same,relative viability,NCI-H2009; first compound 0.8 µM,0.328
same,relative viability,NCI-H2009; first compound 2.53 µM,0.214
same,relative viability,NCI-H2009; first compound 8 µM,0.188
same,relative viability,CAL-12T; first compound 0.08 µM,0.378
same,relative viability,CAL-12T; first compound 0.253 µM,0.404
same,relative viability,CAL-12T; first compound 0.8 µM,0.415
same,relative viability,CAL-12T; first compound 2.53 µM,0.333
same,relative viability,CAL-12T; first compound 8 µM,0.259
same,relative viability,PC-3 [JPC-3]; first compound 0.08 µM,0.529
same,relative viability,PC-3 [JPC-3]; first compound 0.253 µM,0.912
same,relative viability,PC-3 [JPC-3]; first compound 0.8 µM,0.867
same,relative viability,PC-3 [JPC-3]; first compound 2.53 µM,0.892
same,relative viability,PC-3 [JPC-3]; first compound 8 µM,0.897
same,relative viability,HCC-366,0.613
